From ChEMBL document CHEMBL1201862, “PubChem BioAssay data set” (2004)
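Step 1: Grow cells in 96-well plates. Step 2: Expose to compound for 48 hours at 5 concentrations. Step 3: Interpolate endpoints linearly; if unreached, use highest concentration. GI50 is the concentration that inhibits growth by half.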 Activity calls are given as the source filed them. Cut-off read from the data, not from the text of the source: active = GI50 up to about 1.1 µM and inactive = higher.

What was measured:
Experiment in all cases: inhibition of tumour cell growth, NCI panel, 48 h
[1] = system: NCI/ADR-RES
[2] = system: HCC 2998
[3] = system: TK-10
[4] = system: Hs-578T
[5] = system: UACC-62
[6] = system: MDA-MB-435
[7] = system: EKVX
[8] = system: SW-620
[9] = system: SK-MEL-2
[10] = system: SK-MEL-5
[11] = system: COLO 205
[12] = system: MDA-MB-231
[13] = system: SF-539
[14] = system: SNB-75
[15] = system: SR
[16] = system: UO-31
[17] = system: UACC-257
[18] = system: NCI-H522
[19] = system: CCRF-CEM
[20] = system: SF-295
[21] = system: ACHN
[22] = system: HCT-15
[23] = system: 786-0
[24] = system: MDA-N
[25] = system: Malme-3M
[26] = system: SK-OV-3
[27] = system: A549
[28] = system: SN12C
[29] = system: OVCAR-5
[30] = system: OVCAR-8
[31] = system: LOX IMVI
[32] = system: MCF7
[33] = system: HT-29
[34] = system: A498
[35] = system: KM12
[36] = system: HOP-92
[37] = system: SF-268
[38] = system: HOP-62
[39] = system: NCI-H226
[40] = system: NCI-H23
[41] = system: T47D
[42] = system: BT-549
[43] = system: DU-145
[44] = system: RXF 393
[45] = system: HCT-116
[46] = system: HL-60
[47] = system: SNB-19
[48] = system: M14
[49] = system: CAKI-1
[50] = system: IGROV-1
[51] = system: RPMI-8226
[52] = system: MOLT-4
[53] = system: OVCAR-3
[54] = system: PC-3
[55] = system: K562
[56] = system: NCI-H460
[57] = system: OVCAR-4
[58] = system: U-251
[59] = system: SK-MEL-28

O=c1[nH]c(=O)c2c([nH]1)[nH]c1ccc(Br)cc12
GI50 [1]: > 100 µM (inactive)
GI50 [2]: 28 µM (inactive)
GI50 [3]: > 100 µM (inactive)
GI50 [4]: 45.3 µM (inactive)
GI50 [5]: > 100 µM (inactive)
GI50 [6]: > 100 µM (inactive)
GI50 [7]: > 100 µM (inactive)
GI50 [8]: > 100 µM (inactive)
GI50 [9]: > 100 µM (inactive)
GI50 [10]: 95.1 µM (inactive)
GI50 [11]: > 100 µM (inactive)
GI50 [12]: 93.5 µM (inactive)
GI50 [13]: > 100 µM (inactive)
GI50 [14]: 74.5 µM (inactive)
GI50 [15]: > 100 µM (inactive)
GI50 [16]: 56.9 µM (inactive)
GI50 [17]: > 100 µM (inactive)
GI50 [18]: > 100 µM (inactive)
GI50 [19]: 82.2 µM (inactive)
GI50 [20]: > 100 µM (inactive)
GI50 [21]: 70 µM (inactive)
GI50 [22]: 66.1 µM
GI50 [23]: 66.2 µM (inactive)
GI50 [24]: > 100 µM (inactive)
GI50 [25]: > 100 µM (inactive)
GI50 [26]: 13.6 µM (inactive)
GI50 [27]: > 100 µM (inactive)
GI50 [28]: > 100 µM (inactive)
GI50 [29]: > 100 µM (inactive)
GI50 [30]: > 100 µM (inactive)
GI50 [31]: > 100 µM (inactive)
GI50 [32]: 69 µM (inactive)
GI50 [33]: > 100 µM (inactive)
GI50 [34]: > 100 µM (inactive)
GI50 [35]: 21.8 µM (inactive)
GI50 [36]: 62.5 µM (inactive)
GI50 [37]: 97.1 µM (inactive)
GI50 [38]: > 100 µM (inactive)
GI50 [39]: > 100 µM (inactive)
GI50 [40]: > 100 µM (inactive)
GI50 [41]: > 100 µM (inactive)
GI50 [42]: > 100 µM (inactive)
GI50 [43]: > 100 µM (inactive)
GI50 [44]: > 100 µM (inactive)
GI50 [45]: > 100 µM (inactive)
GI50 [46]: 70.6 µM (inactive)
GI50 [47]: > 100 µM (inactive)
GI50 [48]: > 100 µM (inactive)
GI50 [49]: > 100 µM (inactive)
GI50 [50]: 77.6 µM (inactive)
GI50 [51]: 79.6 µM (inactive)

C#CCOCC12C=CC(O1)C1COC(=O)C12 (stereo not drawn)
GI50 [52]: > 100 µM (inactive)
GI50 [1]: > 100 µM (inactive)
GI50 [2]: > 100 µM (inactive)
GI50 [3]: > 100 µM (inactive)
GI50 [4]: > 100 µM (inactive)
GI50 [5]: > 100 µM (inactive)
GI50 [6]: > 100 µM (inactive)
GI50 [53]: > 100 µM (inactive)
GI50 [54]: > 100 µM (inactive)
GI50 [7]: > 100 µM (inactive)
GI50 [55]: > 100 µM (inactive)
GI50 [8]: > 100 µM (inactive)
GI50 [10]: > 100 µM (inactive)
GI50 [11]: > 100 µM (inactive)
GI50 [12]: > 100 µM (inactive)
GI50 [56]: > 100 µM (inactive)
GI50 [13]: > 100 µM (inactive)
GI50 [14]: > 100 µM (inactive)
GI50 [15]: > 100 µM (inactive)
GI50 [16]: > 100 µM (inactive)
GI50 [17]: > 100 µM (inactive)
GI50 [18]: > 100 µM (inactive)
GI50 [19]: > 100 µM (inactive)
GI50 [20]: > 100 µM (inactive)
GI50 [21]: > 100 µM (inactive)
GI50 [22]: > 100 µM
GI50 [23]: > 100 µM (inactive)
GI50 [24]: > 100 µM (inactive)
GI50 [25]: > 100 µM (inactive)
GI50 [26]: > 100 µM (inactive)
GI50 [27]: > 100 µM (inactive)
GI50 [28]: > 100 µM (inactive)
GI50 [57]: > 100 µM (inactive)
GI50 [29]: > 100 µM (inactive)
GI50 [30]: > 100 µM (inactive)
GI50 [31]: > 100 µM (inactive)
GI50 [33]: > 100 µM (inactive)
GI50 [34]: > 100 µM (inactive)
GI50 [35]: > 100 µM (inactive)
GI50 [36]: 7.14 µM (inactive)
GI50 [37]: > 100 µM (inactive)
GI50 [38]: > 100 µM (inactive)
GI50 [39]: > 100 µM (inactive)
GI50 [40]: > 100 µM (inactive)
GI50 [41]: > 100 µM (inactive)
GI50 [42]: > 100 µM (inactive)
GI50 [43]: > 100 µM (inactive)
GI50 [44]: > 100 µM (inactive)
GI50 [45]: > 100 µM (inactive)
GI50 [46]: > 100 µM (inactive)
GI50 [58]: > 100 µM (inactive)
GI50 [47]: > 100 µM (inactive)
GI50 [48]: > 100 µM (inactive)
GI50 [49]: > 100 µM (inactive)
GI50 [50]: > 100 µM (inactive)
GI50 [59]: > 100 µM (inactive)
GI50 [51]: > 100 µM (inactive)
